Assay [1] concerns the target v-abl kinase. As to the kind of experiment: Myelin Basic Protein phosphorylation assay. It counts as biochemical. The note with it: myelin basic protein 56 μM as substrate, 10 μM cold ATP, pH 8.0, 22° C. On the procedure: (§1) The tyrosine specific protein kinase activity of these compounds is shown by the in vitro tests described herebelow.
(§2) The enzyme used in the Abelson tyrosine kinase p95^v-ab which was produced and isolated as follows: 1 Liter cultures of HB-130 cells in LB medium, supplemented with ampicillin, were grown at 30° C. as described by Wang et al. in J. Biol. Chem. 260, 64 (1985). The expression of v-abl protein was induced by shifting the temperature to 42° C. for 3-4 h. The bacterial cells were collected on ice, centrifuged and frozen in liquid nitrogen. The cell pellet was lysed as described by Ferguson et al. in J. Biol. Chem. 260, 3652 (1985) and in Biochem. J. 257, 321 (1989). Briefly, bacterial proteins were removed by differential solubilization with sodium deoxycholate, NaCl and β-octylglucopyranoside in different steps. Insoluble v-abl protein was solubilized with 2M KSCN and dialyzed against 100 volumes of 50 mM Tris-HCl, pH 7.5, 1 mM EDTA and 0.1 mM dithiothreitol (buffer A). The soluble proteins were separated by chromatography on a prepacked Mono-Q anion exchange column in a f.p.l.c. system. […]
The in vitro test with Myelin Basic Protein as substrate was carried out as follows: Protein phosphorylation was performed by incubating 40 ng of purified v-abl kinase, 1.5 μCi […] Bands were located by autoradiography, excised from gel and counted in a liquid scintillation counter.

In assay [2] the target is v-abl kinase. As to the kind of experiment: Autophosphorylation assay (v-abl kinase). It counts as biochemical. The note with it: immunoprecipitated v-abl kinase, 10 μM ATP, 15 min, room temperature. On the procedure: as §1
as §2, with “A).” for “A). The soluble proteins were separated by chromatography on a prepacked Mono-Q anion exchange column in a f.p.l.c. system.”
For the autophosphorylation assay the v-abl kinase was immunoprecipitated with antiphosphotyrosine antibodies and the resulting immunocomplex analyzed in 50 μl of kinase buffer in the presence of 10 μM ATP and 10 μCi […]. […] Bands were located by autoradiography, excised and counted as above. […]

pIC50: −log10 of the molar value.

On to `O=C1Nc2ccccc2C1=Cc1c[nH]c2ccccc12` [3-[(3'-indolyl)methylen]-2-oxindole], for which the pIC50 (usually the negative decadic logarithm of the IC50, by convention in mol/L) in assay [1] is 6.22; in assay [2], 5.00.

With `O=C1Nc2ccc(O)cc2C1=Cc1c[nH]c2ccccc12` [5-Hydroxy-3-[(3'-indolyl)methylene]-2-oxindole], the negative-log IC50 (pIC50) in assay [1] and in assay [2] was 6.40 each time.

These data come from patent publication US5409949A, “Methylen-oxindole derivatives compositions and tyrosine kinase inhibition therewith” (Farmitalia Carlo Erba S.r.l., priority 1991, dated 1995).
